In general, IC50 refers to the midpoint of a concentration-inhibition curve.

SMILES strings stand for the structures.

The experiment has as its target T1, angiotensin II receptor (Rattus norvegicus, UniProt P25095).
T1 sequence (P25095 1-359): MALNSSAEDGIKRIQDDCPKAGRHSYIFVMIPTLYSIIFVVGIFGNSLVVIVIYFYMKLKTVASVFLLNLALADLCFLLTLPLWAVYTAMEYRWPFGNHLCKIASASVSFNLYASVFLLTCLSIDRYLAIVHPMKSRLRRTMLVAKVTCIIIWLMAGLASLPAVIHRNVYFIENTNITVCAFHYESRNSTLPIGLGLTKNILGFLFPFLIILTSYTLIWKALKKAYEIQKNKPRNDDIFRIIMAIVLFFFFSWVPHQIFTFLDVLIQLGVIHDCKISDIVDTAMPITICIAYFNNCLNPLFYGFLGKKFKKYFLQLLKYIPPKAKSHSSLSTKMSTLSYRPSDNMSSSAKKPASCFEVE
The experiment in a line: Inhibition of binding of angiotensin II to rat smooth muscle cells (125I-Tyr4-angiotensin II). Particulars: 125I-AII; rat aorta-derived smooth muscle cells; room temperature, one hour; read-out: IC50, inhibitory activity to the binding of angiotensin II to its receptor.
For the molecule `CCCCc1nc(Cl)c(CO)n1Cc1ccc2nc(-c3ccccc3C(=O)O)ccc2c1`, the IC50 was 0.92 nM.

`CCCCc1nc(Cl)c(C=O)n1Cc1ccc2nc(-c3ccccc3C(=O)O)ccc2c1`: the IC50 was 50 nM. Turning to `CCc1nc2c(C)cc(C)nc2n1Cc1ccc2nc(-c3ccccc3C(=O)OC)ccc2c1` [Example 12, methyl 2-{6-[(2-ethyl-5,7-dimethyl-3H-imidazo-[4,5-b]pyridin-3-yl)methyl]quinolin-2-yl}benzoate], the concentration for half-maximal inhibition (IC50) stood at 440 nM. As to `CCc1nc2c(C)cc(C)nc2n1Cc1ccc2nc(-c3ccccc3-c3nnn[nH]3)cc(Cl)c2c1` [Example 21, 2-ethyl-5,7-dimethyl-3-{[4-chloro-2-[2-(1H-tetrazol-5-yl)phenyl]quinolin-6-yl]methyl}-3H-imidazo[4,5-b]pyridine], the IC50 was 7.7 nM.

In the case of `CCc1nc2c(C)cc(C)nc2n1Cc1ccc2nc(-c3ccccc3C(=O)O)ccc2c1`, the IC50 was 6.4 nM. With `CCCCc1nc(Cl)c(CO)n1Cc1ccc2nc(-c3ccccc3-c3nnn[nH]3)ccc2c1` [Example 11, {2-butyl-4-chloro-1-{[2-[2-(1H-tetrazol-5-yl)phenyl]quinolin-6-yl]methyl}-1H-imidazol-5-yl}methanol], the IC50 stood at 2.5 nM. For `CCc1nc2c(C)cc(C)nc2n1Cc1ccc2nc(-c3ccccc3-c3nnn[nH]3)ccc2c1` [Example 15, 2-ethyl-5,7-dimethyl-3-{[2-[2-(1H-tetrazol-5-yl)phenyl]quinolin-6-yl]methyl}-3H-imidazo[4,5-b]pyridine], the IC50 stood at 0.94 nM.

For `CCCCc1nc2cccnc2n1Cc1ccc2nc(-c3ccccc3C(=O)O)ccc2c1` [Example 17], the IC50 was 11 nM.
